Test results: US20230135136A1, “FGFR TYROSINE KINASE INHIBITORS AND ANTI-PDI AGENTS FOR THE TREATMENT OF UROTHELIAL CARCINOMA” (Janssen Pharmaceutica NV, priority 2020, published 2023)
Read-outs that look alike come from different tables or passages of the source.

How the values were obtained:
[1] = test system: CD38+ T cells in the peripheral blood; assay: Phase 1b: flow cytometry immune cell profiling of blood, T cell activation (CD38+ T cells vs C1D1 baseline); assay type: in vivo, human; conditions: E8RJ cohort, at C1D15, erdafitinib treatment alone; FIG. 4C
Source text: Phase 1b is the dose escalation part of the study wherein two dosing cohorts (Standard Cohorts and Alternative Cohorts) of erdafitinib were explored, while cetrelimab intravenous (IV) dose was fixed. In the Standard Cohorts (DL1, DL2 or DL2A), erdafitinib and cetrelimab start concurrently from Cycle 1 Day 1 (C1D1). In the Alternative Cohorts (DL1B or DL2B), administration of erdafitinib starts on C1D1 but cetrelimab is initiated 1 cycle (4 weeks) later, on Cycle 2 Day 1 (C2D1) (also referred to as a 28-day run-in of erdafitinib).
For phase 1b, blood for immune cell profiling were collected at four time points (C1D1, C1D15, C2D1 and C3D1). […] Blood samples were subjected to flow cytometry analysis on a real time basis. T cell activation is quantified as fold increase in the proportions of 1) CD38+CD3, CD38+CD4, or CD38+CD8 T cells out of lymphocytes or CD3 T cell populations, and 2) CD38+ cells out of CD4+ or CD8+ T cell populations, compared to the baseline proportion levels at C1D1.
(§1) Longitudinal blood samples were analyzed from DL2A (E8J cohort: Erda 8 mg+cetrelimab 240 mg), DL2B (E8RJ cohort: Erda 8 mg 28 days run-in +cetrelimab 240 mg), and DL2 (EJ cohort: Erda 8 mg with the potential dose adjustments to 9 mg depending on phosphate levels measured on C1D15+cetrelimab 240 mg) of phase 1b, and blood samples from Arm A and Arm B of phase 2.

[2] = test system: CD38+ T cells in the peripheral blood; conditions: Arm A, erdafitinib monotherapy, FIG. 7c
Procedure: In Phase 2, two dosing arms are explored: the erdafitinib monotherapy treatment at the starting oral dose of 8 mg (Arm A), or the combination treatment of erdafitinib and cetrelimab (Arm B).
For phase 1b, blood for immune cell profiling were collected at four time points (C1D1, C1D15, C2D1 and C3D1). For phase 2, blood was collected at six time points (C1D1, C1D15, C2D1, C2D15, C3D1 and C3D15). Blood samples were subjected to flow cytometry analysis on a real time basis. T cell activation is quantified as fold increase in the proportions of 1) CD38+CD3, CD38+CD4, or CD38+CD8 T cells out of lymphocytes or CD3 T cell populations, and 2) CD38+ cells out of CD4+ or CD8+ T cell populations, compared to the baseline proportion levels at C1D1.
as §1

Question: With COc1cc(OC)cc(N(CCNC(C)C)c2ccc3ncc(-c4cnn(C)c4)nc3c2)c1 [erdafitinib, N-(3,5-dimethoxyphenyl)-N′-(1-methylethyl)-N-[3-(1-methyl-1H-pyrazol-4-yl)quinoxalin-6-yl]ethane-1,2-diamine] as the molecule, how does the “proportion of CD38+CD8 T cells” value [1] read?
Answer: dramatically increased

Question: What about the “extent of increase of proportion of CD38+CD8 T cells” value ([2]; compared with Arm B) of the same molecule?
Answer: less than that observed in Arm B

Question: What about the “proportion of CD38+CD8 T cells” value [2] of the same molecule?
Answer: increased with time
